This data set has as its system B16 cells. In words: Melanin-production test of B16 cells. Conditions: evaluated concentration 80 µM; culture for 5 days. The format is cell-based, mouse. How it is done: Experimental Example: Melanin-production test of B16 cells
B16 cells (4 x 10⁴) derived from mouse melanoma are suspended in Eagle MBM medium containing bovine fetal serum (10 ml) for culture in the presence of 5% CO₂ at 37°C in 25-cm³ Rou bottle. At day 0 and 3, the medium is replaced for a medium containing each of the above substances of 80 µM/l or 60 µM/l to continue the culture for 5 days. The cells washed with phosphate buffer (pH 7.2) containing 0.8 W/V NaCl, were separated using the solution containing trypsin and EDTA, and filtered to recover the cells. The cells recovered on the filter were measured of their reflection luminous intensity (degree of darkness) at 500 nm with a densitometer.
In the case of `CCCCCC/C=C\CCCCCCCC(=O)OCC(COC(=O)CCCCCCC/C=C\CCCCCC)OC(=O)CCCCCCC/C=C\CCCCCC` [Tripalmitolein], the Melanin levels is on record as 0.1 µg/10^6 cells and the Number of cells is listed as 2.1 × 10^4 cells.

For the compound `CCCCC=CCCCCCCCCC(=O)OCC(O)CO` (stereo not drawn) [1-Monopentadecenoin], the Melanin levels was 0.1 µg/10^6 cells and the Number of cells is listed as 2.4 × 10^4 cells.

On to `CCCCCC/C=C\CCCCCCCC(=O)OCC(O)CO` (stereo not drawn) [1-Monopalmitolein], for which the Melanin levels was determined as 0.1 µg/10^6 cells and the Number of cells is on record as 2.2 × 10^4 cells.

As to `CCCCC=CCCCCCCCCC(=O)OCC(COC(=O)CCCCCCCCC=CCCCC)OC(=O)CCCCCCCCC=CCCCC` (stereo not drawn) [Tripentadecenoin], the Melanin levels is listed as 0.2 µg/10^6 cells and the Number of cells was 2.2 × 10^4 cells.

Consider `CC=CCCCCC(=O)O` [6-Octenoic acid], for which the Melanin levels came out at 4.7 µg/10^6 cells and the Number of cells is recorded as 2.6 × 10^4 cells.

`CCCC=CCCCCC(=O)O` [6-Decenoic acid]: the Melanin levels worked out at 4.8 µg/10^6 cells and the Number of cells is on record as 2.6 × 10^4 cells.

In the case of `CCCCCC/C=C/CCCCCCCC(=O)OC[C@H](COP(=O)([O-])OCC[N+](C)(C)C)OC(=O)CCCCCCC/C=C/CCCCCC` [L-α-Lecithin dipalmitoelaidoyl], the Melanin levels amounted to 3.8 µg/10^6 cells and the Number of cells was 2.7 × 10^4 cells.

Turning to `CCCCCCC=CCCCCCCCCC(=O)OC` [10-Heptadecenoic acid methyl], the Melanin levels worked out at 2.0 µg/10^6 cells and the Number of cells is given as 2.5 × 10^4 cells.

Regarding `CCCCCCC=CCC=CCCCCC(=O)O` [6,9-Hexadecadienoic acid], the Melanin levels was 0.1 µg/10^6 cells and the Number of cells is reported as 2.4 × 10^4 cells.

For `CCC=CCCCCCCCCC(=O)O` [10-Tridecenoic acid], the Melanin levels worked out at 3.0 µg/10^6 cells and the Number of cells is reported as 2.7 × 10^4 cells.

In the case of `CCCCCCC=CCCCCCCCCC(=O)OCC(O)COC(=O)CCCCCCCCC=CCCCCCC` (stereo not drawn) [1,3-Heptadecenoin], the Melanin levels stood at 1.2 µg/10^6 cells and the Number of cells is 2.1 × 10^4 cells.

As for `CCCCCCC=CCCCCCCCC(=O)O` [9-Hexadecenoic acid], the Melanin levels was 0.1 µg/10^6 cells and the Number of cells was 3.2 × 10^4 cells.

As to `CCCCC=CCCCCCCCC(=O)O` [9-Tetradecenoic acid], the Melanin levels is 0.3 µg/10^6 cells and the Number of cells is 2.5 × 10^4 cells.

Consider `CCCC/C=C\CCCCCCCC(=O)OC` [Myristoleic acid methyl], for which the Melanin levels amounted to 1.2 µg/10^6 cells and the Number of cells is 2.6 × 10^4 cells.

`CCCC/C=C\CCCCCCCC(=O)OCC(O)COC(=O)CCCCCCC/C=C\CCCC` [1,3-Dimyristoelin]: the Melanin levels was 1.2 µg/10^6 cells and the Number of cells was 2.0 × 10^4 cells.

On to `CCC=CCC(=O)OC(CO)CO` [2-Monohexenoin], for which the Melanin levels is listed as 4.3 µg/10^6 cells and the Number of cells is given as 2.4 × 10^4 cells.

Turning to `CCCCCC/C=C\CCCCCCCC(=O)OC(CO)CO` [2-Monopalmitolein], the Melanin levels stood at 0.1 µg/10^6 cells and the Number of cells was 2.1 × 10^4 cells.

In the case of `CCCCC=CCCCCCCCCC(=O)OC` [10-Pentadecenoic acid methyl], the Melanin levels is reported as 0.1 µg/10^6 cells and the Number of cells is recorded as 2.7 × 10^4 cells.

With `CCCCC=CCCCCCCCCC(=O)O` [10-Pentadecenoic acid], the Melanin levels was 0.1 µg/10^6 cells and the Number of cells is 2.6 × 10^4 cells.

With `CC=CCCCCC(=O)OCC(O)CO` (stereo not drawn) [1-Monooctenoin], the Melanin levels was 4.5 µg/10^6 cells and the Number of cells is 2.6 × 10^4 cells.

In the case of `CCCC=CCC=CCC=CCCCCC(=O)O` [6,9,12-Hexadecatrienoic acid], the Melanin levels was found to be 0.1 µg/10^6 cells and the Number of cells is 2.5 × 10^4 cells.

For `CCC=CCCCCCCCC(=O)OCC(O)CO` (stereo not drawn) [1-Monododecenoin], the Melanin levels stood at 4.2 µg/10^6 cells and the Number of cells is 2.7 × 10^4 cells.

On to `CCC=CCCCCCCCC(=O)O` [9-Dodecenoic acid], for which the Melanin levels turned out to be 4.6 µg/10^6 cells and the Number of cells is reported as 2.7 × 10^4 cells.

For `CCCCCCC=CCCCCCCCCC(=O)OCC(COC(=O)CCCCCCCCC=CCCCCCC)OC(=O)CCCCCCCCC=CCCCCCC` (stereo not drawn) [Triheptadecenoin], the Melanin levels came to 1.0 µg/10^6 cells and the Number of cells is given as 2.7 × 10^4 cells.

Consider `CCCCCCC=CCCCCCCCCC(=O)O` [10-Heptadecenoic acid], for which the Melanin levels is given as 0.5 µg/10^6 cells and the Number of cells is on record as 2.6 × 10^4 cells.

Regarding `CCCCC=CCC=CCCCCC(=O)O` [6,9-Tetradecadienoic acid], the Melanin levels turned out to be 0.3 µg/10^6 cells and the Number of cells is recorded as 2.5 × 10^4 cells.

On to `CCCCCC/C=C\CCCCCCCC(=O)OCC(O)COC(=O)CCCCCCC/C=C\CCCCCC` [1,3-Dipalmitolein], for which the Melanin levels turned out to be 0.1 µg/10^6 cells and the Number of cells is given as 2.1 × 10^4 cells.

For `CCCCCC/C=C\CCCCCCCC(=O)OC[C@H](COP(=O)([O-])OCC[N+](C)(C)C)OC(=O)CCCCCCC/C=C\CCCCCC` [L-α-Lecithin dipalmitoleyl], the Melanin levels stood at 3.9 µg/10^6 cells and the Number of cells is 2.8 × 10^4 cells.

Turning to `CCC=CCC=CCCCCCC(=O)O` [7,10-Tridecadienoic acid], the Melanin levels was determined as 3.2 µg/10^6 cells and the Number of cells is 2.4 × 10^4 cells.

In the case of `CCCC=CCCCCCC(=O)O` [7-Undecenoic acid], the Melanin levels is reported as 4.7 µg/10^6 cells and the Number of cells was 2.7 × 10^4 cells.

In the case of `CC=CC(=O)O` [2-Butenoic acid], the Melanin levels was 4.6 µg/10^6 cells and the Number of cells was 2.7 × 10^4 cells.

Take `CCCCCC/C=C\CCCCCCCC(=O)OC` [Palmitoleic acid methyl]: the Melanin levels was determined as 0.1 µg/10^6 cells and the Number of cells is reported as 2.6 × 10^4 cells.

Turning to `CCCCCCC=CCCCCCCCCC(=O)OCC(O)CO` (stereo not drawn) [1-Monoheptadecenoin], the Melanin levels is 0.4 µg/10^6 cells and the Number of cells is listed as 2.0 × 10^4 cells.

`CCC=CCCCCCCCC(=O)OCC(CO)OC(=O)CCCCCCCC=CCC` (stereo not drawn) [1,2-Didodecenoin]: the Melanin levels is 4.0 µg/10^6 cells and the Number of cells was 2.4 × 10^4 cells.

Consider `CCCC/C=C\CCCCCCCC(=O)OCC(COC(=O)CCCCCCC/C=C\CCCC)OC(=O)CCCCCCC/C=C\CCCC` [Trimyristolein], for which the Melanin levels is recorded as 1.5 µg/10^6 cells and the Number of cells is 2.5 × 10^4 cells.

As for `CCCCCCC=CCCCCCCCCC(=O)OC(CO)CO` [2-Monoheptadecenoin], the Melanin levels was determined as 0.3 µg/10^6 cells and the Number of cells was 2.2 × 10^4 cells.

`CCCC=CCCCCCC(=O)OC(CO)CO` [2-Monoundecenoin]: the Melanin levels is reported as 3.9 µg/10^6 cells and the Number of cells was 2.5 × 10^4 cells.

On to `CCCCC=CCCCCCCCCC(=O)OCC(O)COC(=O)CCCCCCCCC=CCCCC` (stereo not drawn) [1,3-Dipentadecenoin], for which the Melanin levels stood at 0.2 µg/10^6 cells and the Number of cells was 2.1 × 10^4 cells.

In the case of `CCC=CCC=CCCCCC(=O)O` [6,9-Dodecadienoic acid], the Melanin levels turned out to be 4.4 µg/10^6 cells and the Number of cells is 2.5 × 10^4 cells.

Take `CCCCCC/C=C\CCCCCCCC(=O)OCC(CO)OC(=O)CCCCCCC/C=C\CCCCCC` (stereo not drawn) [1,2-Dipalmitolein]: the Melanin levels is reported as 0.1 µg/10^6 cells and the Number of cells is 2.2 × 10^4 cells.

As to `CCCC/C=C\CCCCCCCC(=O)OCC(CO)OC(=O)CCCCCCC/C=C\CCCC` (stereo not drawn) [1,2-Dimyristolein], the Melanin levels is listed as 2.8 µg/10^6 cells and the Number of cells is recorded as 2.5 × 10^4 cells.

For `CCCC/C=C\CCCCCCCC(=O)OCC(O)CO` (stereo not drawn) [1-Monomyristolein], the Melanin levels stood at 2.2 µg/10^6 cells and the Number of cells is 2.5 × 10^4 cells.

In the case of `CCCCC=CCCCCCCCCC(=O)OCC(CO)OC(=O)CCCCCCCCC=CCCCC` (stereo not drawn) [1,2-Dipentadecenoin], the Melanin levels was 0.1 µg/10^6 cells and the Number of cells was 2.5 × 10^4 cells.

For the compound 2-Monopentadecenoin, the Melanin levels was 0.1 µg/10^6 cells and the Number of cells is listed as 2.2 × 10^4 cells.

For `CCCCC=CCC=CCCCCCC(=O)O` [7,10-Pentadecadienoic acid], the Melanin levels was 0.1 µg/10^6 cells and the Number of cells is 2.6 × 10^4 cells.

The values are drawn from patent EP0355842A2, “External preparation” (Sansho Seiyaku Co., Ltd., priority 1988, dated 1990).
